# Results: publication PMC6394493 (Cancer Chemotherapy and Pharmacology, 2018)
# Where two headings read alike, the source gives them in different places.
# Legend:
# [1] = all formulations and dose levels tested (≥ 100 mg), qd; Western oncology patients; cited from earlier work
# [2] = bid; Western oncology patients; cited from earlier work
# [3] = system: advanced solid tumors; experiment: Tumor response per RECIST v1.0; assay type: in vivo, Japanese patients
# Protocol: Tumor lesions were assessed by the investigators according to the RECIST guidelines, v1.0. Patients underwent screening using computed tomography (CT) or magnetic resonance imaging (MRI) scans. Screening was performed within 28 days of the first dose. The post-baseline RECIST assessments were performed every two cycles and then at the end of treatment.
# [4] = Phase I dose escalation (3 + 3): DLTs, MTD, recommended dose; assay type: in vivo
# Protocol: BEZ235 was administered orally as a single agent on a continuous qd or bid dosing schedule. […] Furthermore, in the previous study, a granule formulation (BEZ235 SDS sachet) was developed because of difficulties in swallowing the large size capsules of the investigational drug. The ingredients of this new formulation, which are dispensed as granules contained within a sachet, are essentially the same as the capsule. […] Decisions regarding dose escalation were based on the safety profile, particularly DLTs, observed in the first cycle of treatment for each patient.
# Safety assessments consisted of monitoring and recording of all AEs, including laboratory abnormalities and vital signs. DLTs were defined as an AE or a laboratory abnormality assessed as related to the study drug and occurring within the first 28 days of treatment (Cycle 1), as defined in Supplemental Table S1.
# [5] = system: S6 phosphorylation (pS6); experiment: pS6 in normal skin samples (PD biomarker); assay type: in vivo, Japanese patients; conditions: 400 mg bid; 3/6 patients; baseline vs end of Cycle 1
# [6] = Plasma pharmacokinetics (LC–MS/MS, non-compartmental analysis); assay type: in vivo, Japanese patients; conditions: for AUC(0-inf) / AUC(0-t) / Cmax / Tmax: human, plasma, oral; for AUC(0-inf): read-out: AUCinf, Median; for Cmax: read-out: Cmax, Median; for Tmax: read-out: Tmax, Median
# Protocol: The PK parameters were determined by non-compartmental analysis using Phoenix WinNonlin 6.2® (Pharsight, Mountain View, CA).
# [7] = 400 mg, Cycle 1 Day 1, 400 mg bid, n = 7
# [8] = 400 mg, Cycle 1 Day 1, 400 mg qd, n = 3
# [9] = 400 mg, Cycle 1 Day 8, 400 mg bid, n = 6
# [10] = 400 mg, Cycle 1 Day 8, 400 mg qd, n = 3
# [11] = 400 mg, Cycle 1 Day 28, 400 mg bid, n = 4
# [12] = 400 mg, Cycle 1 Day 28, 400 mg qd, n = 3
# [13] = 800 mg, Cycle 1 Day 1, 800 mg qd, n = 3
structure (smiles),measurement,setting,value
Cn1c(=O)n(-c2ccc(C(C)(C)C#N)cc2)c2c3cc(-c4cnc5ccccc5c4)ccc3ncc21 [BEZ235],bioavailability,[1],low bioavailability
same,MTD,[2],300 mg
same,complete or partial responses (CR or PR),"[3]; all dose levels, qd and bid, 35 patients, RECIST v1.0",No complete or partial responses
same,Stable disease (SD) as the best response,"[3]; bid, 2 of 8 evaluable patients",25.0%
same,duration of continued treatment with SD,"[3]; one patient with carcinoma of unknown primary, qd",10 months
same,Stable disease (SD) as the best response,"[3]; qd, 14 of 27 evaluable patients",51.9%
same,recommended dose (RD),"[4]; human, in vivo, 28 days",1000 mg
same,tolerability of 400 mg bid,[4]; in vivo,considered as a tolerable dose
same,maximum clinically tolerable dose,[4]; qd dosing schedule,1200 mg
same,MTD,"[4]; qd dosing, highest dose that causes DLT in no more than one out of six patients in Cycle 1",not reached
same,samples with reduction of pS6 in normal skin,[5],50%
same,dose dependence of Cmax and AUC,[6]; 400 to 1400 mg qd,appeared to increase in a dose-dependent manner
same,"inter-individual variability, coefficient of variation on the AUC and Cmax",[6]; at most of the visits and doses,greater than 100%
same,AUC(0-inf),"[6]; 400 mg, Cycle 1 Day 1, 400 mg bid, n = 2",2000 ng·h/mL
same,AUC(0-t),"[6]; 400 mg, Cycle 1 Day 1, 400 mg bid, n = 4, read-out: AUC0 − 24, Median",1760 ng·h/mL
same,AUC(0-t),"[6]; 400 mg, Cycle 1 Day 1, 400 mg bid, n = 7, read-out: AUClast, Median",2280 ng·h/mL
same,Cmax,[6]; [7],301 ng/mL
same,Tmax,[6]; [7],6 h
same,AUC(0-inf),"[6]; 400 mg, Cycle 1 Day 1, 400 mg qd, n = 2",978 ng·h/mL
same,AUC(0-t),"[6]; 400 mg, Cycle 1 Day 1, 400 mg qd, n = 3, read-out: AUC0 − 24, Median",1040 ng·h/mL
same,AUC(0-t),"[6]; 400 mg, Cycle 1 Day 1, 400 mg qd, n = 3, read-out: AUClast, Median",1040 ng·h/mL
same,Cmax,[6]; [8],135 ng/mL
same,Tmax,[6]; [8],4 h
same,AUC(0-inf),"[6]; 400 mg, Cycle 1 Day 8, 400 mg bid, n = 1",2790 ng·h/mL
same,AUC(0-t),"[6]; 400 mg, Cycle 1 Day 8, 400 mg bid, n = 5, read-out: AUC0 − 24, Median",10700 ng·h/mL
same,AUC(0-t),"[6]; 400 mg, Cycle 1 Day 8, 400 mg bid, n = 6, read-out: AUClast, Median",9700 ng·h/mL
same,Cmax,[6]; [9],1050 ng/mL
same,Tmax,[6]; [9],4 h
same,AUC(0-inf),"[6]; 400 mg, Cycle 1 Day 8, 400 mg qd, n = 2",14300 ng·h/mL
same,AUC(0-t),"[6]; 400 mg, Cycle 1 Day 8, 400 mg qd, n = 3, read-out: AUC0 − 24, Median",7350 ng·h/mL
same,AUC(0-t),"[6]; 400 mg, Cycle 1 Day 8, 400 mg qd, n = 3, read-out: AUClast, Median",7350 ng·h/mL
same,Cmax,[6]; [10],754 ng/mL
same,Tmax,[6]; [10],4 h
same,AUC(0-inf),"[6]; 400 mg, Cycle 1 Day 28, 400 mg bid, n = 1",2660 ng·h/mL
same,AUC(0-t),"[6]; 400 mg, Cycle 1 Day 28, 400 mg bid, n = 3, read-out: AUC0 − 24, Median",29400 ng·h/mL
same,AUC(0-t),"[6]; 400 mg, Cycle 1 Day 28, 400 mg bid, n = 4, read-out: AUClast, Median",34100 ng·h/mL
same,Cmax,[6]; [11],3650 ng/mL
same,Tmax,[6]; [11],4 h
same,AUC(0-t),"[6]; 400 mg, Cycle 1 Day 28, 400 mg qd, n = 3, read-out: AUC0 − 24, Median",8920 ng·h/mL
same,AUC(0-inf),[6]; [12],10200 ng·h/mL
same,AUC(0-t),"[6]; 400 mg, Cycle 1 Day 28, 400 mg qd, n = 3, read-out: AUClast, Median",8920 ng·h/mL
same,Cmax,[6]; [12],795 ng/mL
same,Tmax,[6]; [12],4 h
same,AUC(0-inf),"[6]; 800 mg, Cycle 1 Day 1, 800 mg qd, n = 1",1490 ng·h/mL
same,AUC(0-t),"[6]; 800 mg, Cycle 1 Day 1, 800 mg qd, n = 3, read-out: AUC0 − 24, Median",2560 ng·h/mL
same,AUC(0-t),"[6]; 800 mg, Cycle 1 Day 1, 800 mg qd, n = 3, read-out: AUClast, Median",2560 ng·h/mL
same,Cmax,[6]; [13],154 ng/mL
same,Tmax,[6]; [13],8 h
same,AUC(0-inf),"[6]; 800 mg, Cycle 1 Day 8, 800 mg qd, n = 1",19900 ng·h/mL
same,AUC(0-t),"[6]; 800 mg, Cycle 1 Day 8, 800 mg qd, n = 3, read-out: AUC0 − 24, Median",17300 ng·h/mL
same,AUC(0-t),"[6]; 800 mg, Cycle 1 Day 8, 800 mg qd, n = 3, read-out: AUClast, Median",17300 ng·h/mL
same,Cmax,"[6]; 800 mg, Cycle 1 Day 8, 800 mg qd, n = 3",1170 ng/mL
